Key:
[1] = not estimated, fixed to estimates of the previous model ref 15; cited from earlier work
[2] = Population pharmacokinetic analysis of linagliptin plasma concentrations; type: in vivo, human (patients with T2DM)
[3] = single rising-dose study, healthy volunteers, up to a dose of 600 mg ref 5; cited from earlier work

CC#CCn1c(N2CCC[C@@H](N)C2)nc2c1c(=O)n(Cc1nc(C)c3ccccc3n1)c(=O)n2C [linagliptin, (R)-8-(3-Amino-piperidin-1-yl)-7-but-2-ynyl-3-methyl-1-(4-methyl-quinazolin-2-ylmethyl)-3,7-dihydro-purine-2,6-dione]
VP/F: typical volume of distribution of the peripheral compartment [1]: 1,650 L
change in exposure, combination of covariate effects (largest decrease) ([2]; 5 mg, person, 117 kg, GGT 9.4 U/L, pre-dose DPP-4 activity 8,025 RFU): −26%
increase in linagliptin exposure, impact of weight ([2]; 5th percentile of weight): 5.9%
increase in linagliptin exposure with age ([2]; 73-year-old vs 42-year-old patient (95th and 5th percentile of age)): 13.8%
decrease in linagliptin exposure, impact of weight ([2]; 95th percentile of weight): 8.7%
Weight_F: percentage change in F per kg change from median weight of population ([2]; covariate effect, median weight 88 kg, final model): −0.958
Dose_Ka: percentage change in Ka per dose unit change from the 5 mg dose group ([2]; covariate effect, final model): −6.51
CL/F: typical clearance of the unbound concentration ([2]; final model): 258 L/h
πF: intra-individual variability in relative bioavailability ([2]; final model): 40.0 CV %
ωCL: inter-individual variability in clearance of the unbound concentration ([2]; final model): 27.5 CV %
ωF: inter-individual variability in relative bioavailability ([2]; final model): 47.4 CV %
ωKa: inter-individual variability in the absorption rate constant ([2]; final model): 76.4 CV %
ωVC: inter-individual variability in the central volume of distribution ([2]; final model): 24.4 CV %
Vd/F ([2]; human, in vivo): 715 L
Ka,1: typical absorption rate constant study 1 ([2]; powder in bottle formulation, oral): 0.933 h⁻¹
linear decrease in bioavailability for every 1 kg increase in weight ([2]; relative bioavailability, oral): 0.96%
Ka,2: typical absorption rate constant study 2 ([2]; tablet formulation 1, oral): 0.795 h⁻¹
Ka,3: typical absorption rate constant studies 3/4 ([2]; tablet formulation 2, oral): 0.441 h⁻¹
tolerability of a single dose [3]: well tolerated

Reference: PMC4486092 (Clinical Pharmacokinetics, 2015)
